Species: Rattus norvegicus
Assay: DrugMatrix - Regimen: Daily Repeat
Format: toxicity, organism-based, Sprague-Dawley
Parameters: regimen Daily Repeat, gender Male, age 6-8 weeks
Conditions: in vivo, po, route oral GAVAGE, vehicle 100 % WATER; for ABSOLUTE BASOPHIL / ABSOLUTE EOSINOPHIL / ABSOLUTE LYMPHOCYTE / ABSOLUTE MONOCYTE / ABSOLUTE SEGMENTED NEUTROPHIL / BASOPHIL / EOSINOPHIL / ERYTHROCYTE COUNT / HEMATOCRIT / HEMOGLOBIN / LEUKOCYTE COUNT / LYMPHOCYTE / MEAN CORPUSCULAR HEMOGLOBIN / MEAN CORPUSCULAR HEMOGLOBIN CONCENTRATION / MEAN CORPUSCULAR VOLUME / MONOCYTE / NEUTROPHIL / NUCLEATED RED BLOOD CELLS / PLATELET COUNT: tissue Blood; for ALANINE AMINOTRANSFERASE / ALBUMIN / ALKALINE PHOSPHATASE / ASPARTATE AMINOTRANSFERASE / BLOOD UREA NITROGEN / CARBON DIOXIDE / CHLORIDE / CHOLESTEROL / CREATINE PHOSPHOKINASE / CREATININE / GLUCOSE / LACTATE DEHYDROGENASE / LIPASE / PHOSPHORUS / POTASSIUM / SODIUM / TOTAL BILIRUBIN / TOTAL PROTEIN / URIC ACID: tissue Plasma
[1] = 0 mg/kg, 72 h, dose level Control, time 3 day
[2] = 0 mg/kg, 120 h, dose level Control, time 5 day
[3] = 63 mg/kg, 72 h, dose level High, time 3 day

In the case of `CNCCC=C1c2ccccc2CCc2ccccc21` [NORTRIPTYLINE], the “ABSOLUTE BASOPHIL” value [1] was 0 CELLS/uL, the “ABSOLUTE EOSINOPHIL” value [1] was 123.17 CELLS/uL and the “ABSOLUTE LYMPHOCYTE” value [1] was 12677.83 CELLS/uL. The “ABSOLUTE MONOCYTE” value [1] was 66.17 CELLS/uL, the “ABSOLUTE SEGMENTED NEUTROPHIL” value [1] was 1149.5 CELLS/uL and the BASOPHIL [1] was 0%. The EOSINOPHIL [1] was 0.83%, the “ERYTHROCYTE COUNT” value [1] was 5.26 x10E6/uL and the HEMATOCRIT [1] was 33.07%. For the same compound, the HEMOGLOBIN [1] was 13.43 G/DL, the “LEUKOCYTE COUNT” value [1] was 14.02 x10E3/uL and the LYMPHOCYTE [1] was 90.17%. For the same compound, the “MEAN CORPUSCULAR HEMOGLOBIN” value [1] was 25.62 pg, the “MEAN CORPUSCULAR HEMOGLOBIN CONCENTRATION” value [1] was 40.65 G/DL and the “MEAN CORPUSCULAR VOLUME” value [1] was 63 fL. The MONOCYTE [1] was 0.5%, the NEUTROPHIL [1] was 8.5% and the “NUCLEATED RED BLOOD CELLS” value [1] was 0.17 /100WBC. The “PLATELET COUNT” value [1] was 1142.83 x10E3/uL, the “ALANINE AMINOTRANSFERASE” value [1] was 45.17 u/L and the ALBUMIN [1] was 3.78 G/DL. For the same compound, the “ALKALINE PHOSPHATASE” value [1] was 340.17 u/L, the “ASPARTATE AMINOTRANSFERASE” value [1] was 77.33 u/L and the “BLOOD UREA NITROGEN” value [1] was 14.67 mg/dL. The “CARBON DIOXIDE” value [1] was 28.67 mmol/L, the CHLORIDE [1] was 101.17 MEQ/L and the CHOLESTEROL [1] was 77.67 mg/dL. The “CREATINE PHOSPHOKINASE” value [1] was 263.67 u/L, the CREATININE [1] was 0.15 mg/dL and the GLUCOSE [1] was 169.33 mg/dL. The “LACTATE DEHYDROGENASE” value [1] was 230 u/L, the LIPASE [1] was 9.67 u/L and the PHOSPHORUS [1] was 11.8 mg/dL. For the same compound, the POTASSIUM [1] was 5.91 MEQ/L, the SODIUM [1] was 142.88 MEQ/L and the “TOTAL BILIRUBIN” value [1] was 0.22 mg/dL. The “TOTAL PROTEIN” value [1] was 5.7 G/DL, the “URIC ACID” value [1] was 1.35 mg/dL and the “ABSOLUTE BASOPHIL” value [2] was 0 CELLS/uL. For the same compound, the “ABSOLUTE EOSINOPHIL” value [2] was 125 CELLS/uL, the “ABSOLUTE LYMPHOCYTE” value [2] was 13809 CELLS/uL and the “ABSOLUTE MONOCYTE” value [2] was 351 CELLS/uL. The “ABSOLUTE SEGMENTED NEUTROPHIL” value [2] was 1581.67 CELLS/uL, the BASOPHIL [2] was 0% and the EOSINOPHIL [2] was 0.67%. The “ERYTHROCYTE COUNT” value [2] was 5.53 x10E6/uL, the HEMATOCRIT [2] was 34.83% and the HEMOGLOBIN [2] was 13.9 G/DL. The “LEUKOCYTE COUNT” value [2] was 15.87 x10E3/uL, the LYMPHOCYTE [2] was 87.5% and the “MEAN CORPUSCULAR HEMOGLOBIN” value [2] was 25.25 pg. The “MEAN CORPUSCULAR HEMOGLOBIN CONCENTRATION” value [2] was 40.08 G/DL, the “MEAN CORPUSCULAR VOLUME” value [2] was 63.05 fL and the MONOCYTE [2] was 2.17%. The NEUTROPHIL [2] was 9.67%, the “NUCLEATED RED BLOOD CELLS” value [2] was 0 /100WBC and the “PLATELET COUNT” value [2] was 1044 x10E3/uL. For the same compound, the “ALANINE AMINOTRANSFERASE” value [2] was 50.67 u/L, the ALBUMIN [2] was 4.33 G/DL and the “ALKALINE PHOSPHATASE” value [2] was 395 u/L. The “ASPARTATE AMINOTRANSFERASE” value [2] was 86 u/L, the “BLOOD UREA NITROGEN” value [2] was 15.33 mg/dL and the “CARBON DIOXIDE” value [2] was 29.33 mmol/L. The CHLORIDE [2] was 101.5 MEQ/L, the CHOLESTEROL [2] was 71.33 mg/dL and the “CREATINE PHOSPHOKINASE” value [2] was 323.17 u/L. The CREATININE [2] was 0.18 mg/dL, the GLUCOSE [2] was 145.67 mg/dL and the “LACTATE DEHYDROGENASE” value [2] was 389.5 u/L. It also gave an LIPASE [2] of 9.83 u/L, a PHOSPHORUS [2] of 11.35 mg/dL and a POTASSIUM [2] of 6.39 MEQ/L. For the same compound, the SODIUM [2] was 142.77 MEQ/L, the “TOTAL BILIRUBIN” value [2] was 0.18 mg/dL and the “TOTAL PROTEIN” value [2] was 6.1 G/DL. The “URIC ACID” value [2] was 1.52 mg/dL, the “ABSOLUTE BASOPHIL” value [3] was 0 CELLS/uL and the “ABSOLUTE EOSINOPHIL” value [3] was 63 CELLS/uL. The “ABSOLUTE LYMPHOCYTE” value [3] was 15345.67 CELLS/uL, the “ABSOLUTE MONOCYTE” value [3] was 215.33 CELLS/uL and the “ABSOLUTE SEGMENTED NEUTROPHIL” value [3] was 642.67 CELLS/uL. The BASOPHIL [3] was 0%, the EOSINOPHIL [3] was 0.33% and the “ERYTHROCYTE COUNT” value [3] was 6.2 x10E6/uL. For the same compound, the HEMATOCRIT [3] was 38.33%, the HEMOGLOBIN [3] was 14.97 G/DL and the “LEUKOCYTE COUNT” value [3] was 16.27 x10E3/uL. The LYMPHOCYTE [3] was 94.33%, the “MEAN CORPUSCULAR HEMOGLOBIN” value [3] was 24.13 pg and the “MEAN CORPUSCULAR HEMOGLOBIN CONCENTRATION” value [3] was 39.07 G/DL. The “MEAN CORPUSCULAR VOLUME” value [3] was 61.83 fL, the MONOCYTE [3] was 1.33% and the NEUTROPHIL [3] was 4%. The “NUCLEATED RED BLOOD CELLS” value [3] was 1 /100WBC, the “PLATELET COUNT” value [3] was 1320 x10E3/uL and the “ALANINE AMINOTRANSFERASE” value [3] was 47.33 u/L. For the same compound, the ALBUMIN [3] was 3.83 G/DL, the “ALKALINE PHOSPHATASE” value [3] was 416.67 u/L and the “ASPARTATE AMINOTRANSFERASE” value [3] was 75 u/L. For the same compound, the “BLOOD UREA NITROGEN” value [3] was 15 mg/dL, the “CARBON DIOXIDE” value [3] was 29.33 mmol/L and the CHLORIDE [3] was 101 MEQ/L. The CHOLESTEROL [3] was 74.67 mg/dL, the “CREATINE PHOSPHOKINASE” value [3] was 194 u/L and the CREATININE [3] was 0.17 mg/dL. The GLUCOSE [3] was 184 mg/dL, the “LACTATE DEHYDROGENASE” value [3] was 108 u/L and the LIPASE [3] was 9 u/L. For the same compound, the PHOSPHORUS [3] was 13.13 mg/dL, the POTASSIUM [3] was 6.61 MEQ/L and the SODIUM [3] was 143.73 MEQ/L. The “TOTAL BILIRUBIN” value [3] was 0.2 mg/dL, the “TOTAL PROTEIN” value [3] was 5.63 G/DL and the “URIC ACID” value [3] was 1.9 mg/dL.

Source: ChEMBL document CHEMBL3885881, “DrugMatrix”
